Data as given in patent US20070054884A1 (priority 2005, published 2007).
Values after ≈ are worked out from the molar mass of the structure shown.

Legend:
[1] = tested on: B. cereus; experiment: Minimum Inhibitory Concentration (MIC), broth dilution method; format: cell-based; details: Bacillus cereus, read-out: MIC B. cereus
Procedure: (§1) Minimum Inhibitory Concentration (MIC), Broth Dilution Method:
(§2) The compounds of the present invention were tested against selected Gram positive and Gram negative organisms using standard microtitration techniques well known to those skilled in the art. Cultures of bacteria were initially applied by streaking a loopful onto agar plates under the appropriate conditions. For example, bacterial stocks are streaked for isolation of single colonies onto chocolate agar and then incubated for 18 hours at 35-37° C. in a 5% CO2 incubator. Five to ten colonies were picked from the chocolate agar plate for subculture to Brain-Heart infusion (BHI) broth, Mueller Hinton broth, or BHI containing 4% serum, and incubated under the appropriate conditions. The ability of the test compound to act as an antimicrobial was determined by the ability of dilutions of the test substance to inhibit bacterial growth in vitro. The optical density of the culture of organisms in the presence of an active compound was compared to the optical density of the same organism grown without test compound. The activity of the compounds is described as either negative or the lowest concentration inhibiting growth (Minimum Inhibitory Concentration [MIC]).
(§3) The activity of selected compounds of the present invention against representative Gram positive and Gram negative bacteria are shown in the following Table 1.

[2] = tested on: S. aureus 29213; experiment: as above; format: cell-based; details: Staphylococcus aureus, 29213, read-out: MIC S. aureus 29213
Procedure: as §1, §2, §3

[3] = tested on: B.anthracis V770-NR1-R; experiment: microbe, parasite or virus in culture; format: cell-based; details: Bacillus anthracis, V770NR1R, read-out: MIC B.anthracis V770-NR1-R
[4] = tested on: S. pneumoniae 11733; experiment: Minimum Inhibitory Concentration (MIC), broth dilution method; format: cell-based; details: Streptococcus pneumoniae, 11733, read-out: MIC S. pneumoniae 11733
Procedure: as §1, §2, §3

Question: What does the source list for N/C(=N/O)c1cc(Oc2ccc(Cl)cc2Cl)c(O)cc1Cl [Example 34, 2-Chloro-5-(2,4-dichloro-phenoxy)-4,N-dihydroxy-benzamidine]?
Answer: melting point: 137 °C; MIC [1]: 100 µg/mL (≈ 288 µM); MIC [2]: 100 µg/mL (≈ 288 µM); MIC [3]: 200 µg/mL (≈ 575 µM)

Question: For N#Cc1cc(Cl)ccc1Oc1cc(N2CCOCC2)c(F)cc1O, which melting point is on record?
Answer: 149 to 151 °C

Question: For Oc1cc(Cl)c(-n2cnnn2)cc1Oc1ccc(Cl)cc1Cl [Example 32, 5-Chloro-2-(2,4-dichloro-phenoxy)-4-tetrazol-1-yl-phenol], which melting point is on record?
Answer: 147 to 148 °C

Question: What about the MIC [1] of the same compound?
Answer: 1300 µg/mL (≈ 3640 µM)

Question: What about the MIC [4] of the same compound?
Answer: 3100 µg/mL (≈ 8670 µM)

Question: And the MIC [2]?
Answer: 1600 µg/mL (≈ 4470 µM)

Question: What about the MIC [3] of the same compound?
Answer: 800 µg/mL (≈ 2240 µM)

Question: For CCOC(=O)c1nc(-c2cc(Oc3ccc(Cl)cc3Cl)c(O)cc2Cl)no1 [Example 35, 3-[2-Chloro-5-(2,4-dichloro-phenoxy)-4-hydroxy-phenyl][1,2,4]oxadiazole-5-carboxylic acid ethyl ester], which melting point is on record?
Answer: 130 °C

Question: What about the MIC [1] of the same compound?
Answer: 100 µg/mL (≈ 233 µM)

Question: What about the MIC [2] of the same compound?
Answer: 200 µg/mL (≈ 466 µM)

Question: What about the MIC [3] of the same compound?
Answer: 100 µg/mL (≈ 233 µM)

Question: Which results are given for Oc1cc(Cl)c(-n2cccc2)cc1Oc1ccc(Cl)cc1Cl [Example 17, 5-Chloro-2-(2,4-dichloro-phenoxy)-4-pyrrol-1-yl-phenol]?
Answer: melting point: 86 to 87 °C; MIC [1]: 50 µg/mL (≈ 141 µM); MIC [2]: 250 µg/mL (≈ 705 µM); MIC [3]: 100 µg/mL (≈ 282 µM)

Question: Which MIC [1] does the source give for Oc1cc(Cl)c(-c2ccsc2)cc1Oc1ccc(Cl)cc1Cl [Example 5, 5-Chloro-2-(2,4-dichloro-phenoxy)-4-thiophen-3-yl-phenol] here?
Answer: 200 µg/mL (≈ 538 µM)

Question: What about the MIC [4] of the same compound?
Answer: 10 µg/mL (≈ 26.9 µM)

Question: What about the MIC [2] of the same compound?
Answer: 130 µg/mL (≈ 350 µM)

Question: And the MIC [3]?
Answer: 400 µg/mL (≈ 1080 µM)

Question: Which results are given for Cc1cc(O)c(Oc2ccccc2C#N)cc1-c1cccs1 [Example 26, 2-(2-Hydroxy-4-methyl-5-thiophen-2-yl-phenoxy)-benzonitrile]?
Answer: MIC [1]: 12500 µg/mL (≈ 40700 µM); MIC [4]: 500 µg/mL (≈ 1630 µM); MIC [2]: 4000 µg/mL (≈ 13000 µM); MIC [3]: 12500 µg/mL (≈ 40700 µM)

Question: Which results are given for Oc1cc(Cl)c(-c2ccco2)cc1Oc1ccc(Cl)cc1Cl [Example 4, 5-Chloro-2-(2,4-dichloro-phenoxy)-4-furan-2-yl-phenol]?
Answer: MIC [4]: 500 µg/mL (≈ 1410 µM); MIC [2]: 500 µg/mL (≈ 1410 µM)

Question: What does the source list for O=C(Nc1cc(Oc2ccc(Cl)cc2Cl)c(O)cc1Cl)c1ccco1 [Example 20, Furan-2-carboxylic acid [2-chloro-5-(2,4-dichloro-phenoxy)-4-hydroxy-phenyl]-amide]?
Answer: MIC [1]: > 25000 µg/mL; MIC [4]: 2000 µg/mL (≈ 5020 µM); MIC [2]: 4000 µg/mL (≈ 10000 µM); MIC [3]: > 25000 µg/mL

Question: For CCOC(=O)NC(=S)Nc1cc(Oc2ccc(Cl)cc2Cl)c(O)cc1Cl [Example 7], which melting point is on record?
Answer: 170 to 172 °C

Question: And the MIC [1]?
Answer: 800 µg/mL (≈ 1840 µM)

Question: And the MIC [4]?
Answer: 31300 µg/mL (≈ 71800 µM)

Question: What about the MIC [2] of the same compound?
Answer: 2000 µg/mL (≈ 4590 µM)

Question: And the MIC [3]?
Answer: 1600 µg/mL (≈ 3670 µM)

Question: Which results are given for Oc1cc(Cl)c(NC(=S)NC2CCCCC2)cc1Oc1ccc(Cl)cc1Cl [Example 12, 1-[2-Chloro-5-(2,4-dichloro-phenoxy)-4-hydroxy-phenyl]-3-cyclohexyl-thiourea]?
Answer: MIC [4]: 31300 µg/mL (≈ 70200 µM); MIC [2]: 2000 µg/mL (≈ 4490 µM)

Question: For CN1CCN(c2cc(Oc3ccc(Cl)cc3Cl)c(O)cc2Cl)CC1 [Example 2, 5-Chloro-2-(2,4-dichloro-phenoxy)-4-(4-methyl-piperazin-1-yl)-phenol], which MIC [1] is on record?
Answer: > 25000 µg/mL

Question: And the MIC [4]?
Answer: 250 µg/mL (≈ 645 µM)

Question: What about the MIC [2] of the same compound?
Answer: 60 µg/mL (≈ 155 µM)

Question: And the MIC [3]?
Answer: > 25000 µg/mL

Question: Which results are given for O=C(O)c1nc(-c2cc(Oc3ccc(Cl)cc3Cl)c(O)cc2Cl)no1 [Example 36, 3-[2-Chloro-5-(2,4-dichloro-phenoxy)-4-hydroxy-phenyl]-[1,2,4]oxadiazole-5-carboxylic acid]?
Answer: melting point: 115 °C; MIC [1]: 100 µg/mL (≈ 249 µM); MIC [2]: 200 µg/mL (≈ 498 µM); MIC [3]: 50 µg/mL (≈ 125 µM)

Question: What does the source list for CC(=O)Nc1nc(C)c(S(=O)(=O)Nc2cc(Oc3ccc(Cl)cc3Cl)c(O)cc2Cl)s1 [Example 23, N-{5-[2-Chloro-5-(2,4-dichloro-phenoxy)-4-hydroxy-phenylsulfamoyl]-4-methyl-thiazol-2-yl}-acetamide]?
Answer: MIC [4]: 15700 µg/mL (≈ 30000 µM); MIC [2]: 4000 µg/mL (≈ 7650 µM)

Question: What does the source list for OB(O)c1cc(Oc2ccc(Cl)cc2Cl)c(O)cc1Cl [Example 6, 2-Chloro-5-(2,4-dichloro-phenoxy)-4-hydroxy-phenylboronic acid]?
Answer: melting point: 180 to 183 °C; MIC [2]: 500 µg/mL (≈ 1500 µM)

Question: What does the source list for Cc1cc(O)c(Oc2ccccc2C#N)cc1-c1ccco1 [Example 28, 2-(5-Furan-2-yl-2-hydroxy-4-methyl-phenoxy)-benzonitrile]?
Answer: MIC [1]: 1600 µg/mL (≈ 5490 µM); MIC [4]: 500 µg/mL (≈ 1720 µM); MIC [2]: 2000 µg/mL (≈ 6870 µM); MIC [3]: 800 µg/mL (≈ 2750 µM)
